The values that follow come from patent US12503426B2, “Synthetic derivatives of oleoyl-lysophosphatidylinositol (oleoyl-LPI) and uses thereof” (LIPOVEXA SRL, priority 2017, dated 2025).

One may read the EC50 as the midpoint of the concentration-response curve.

For assay [1], the system named is Glutag and NCI-H761 cells. Nature of the assay: Dose response of GLP-1 release at different glucose concentrations. Type of assay: cell-based. The conditions noted are these: 5 mM glucose, 2 hours, percentage of vehicle control. The protocol: Panels A and B show results of dose response of GLP-1 release in different glucose concentration of 5 mM (panel A) and 10 mM (panel B). The dose response of GLP-1 released was normalised of number of cells measured in parallel. Glutag and […] cells were incubated with vehicle alone, oleoyl-LPI, OEA, LPC forskolin (10 μM) and PMA (1 μM) as positive control for 2 hours. Results were normalised as percentage of cell treated with vehicle (control). For panels A and B data are shown as means±SEM of n=3 from independent experiments performed in duplicates. Student t-test: *p<0.05, **P<0.01. Panel C show results of dose response of GLP-1 release in a glucose concentration of 20 mM.
Approximately 80,000 Glutag cells were plated in poly-L-lysine-coated 24-well culture plates and grown to about 80% confluence. NCI-H716 cells were seeded on growth factor reduced Matrigel™ (Becton Dickinson, Bedford, MA) in DMEM medium, supplemented with 10% FBS the day before the experiment. For NCI-H716 cells, approximately 25,000 cells were needed for this secretion experiment in order to have good stimulation with lower basal GLP-1 secretion. In brief, Glutag and NCI-H716 cells were washed twice and then incubated for 2 h with FBS-free DMEM containing 1% (M:C) alone (negative control), 10 μM forskolin as positive control (Sigma-Aldrich), or with different concentrations of Oleoyl-LPI. M:C was used as a solvent to prepare stock solutions of fatty acid derivatives and inhibitors. For secretion experiments, medium and cells were collected separately.
To determine the effect of glucose in oleoyl-LPI induced GLP-1 secretion, the inventors conducted dose-response experiment in the presence of 5 mM and 10 mM glucose in the secretion medium with the results outlined in FIG. 2A and FIG. 2B.

The next assay has as its system Glutag cells. Nature of the assay: GLP-1 secretion by Glutag cells. Type of assay: cell-based, murine. The note with it: 2 hours. An outline of the steps: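 Murine GLUTag and human NCI-H716 L-cells were incubated 2 h in FBS-free DMEM with LPI species, OEA or LPC, with optional 1 h pretreatment with PD98059 (50 μM) or H89 (10 μM). Total medium GLP-1 was measured by ELISA and normalised to basal control secretion.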

The next assay addresses T1, human GPR119 (Homo sapiens, UniProt Q8TDV5).
T1 construct: expressed in transfected cells; host or cells: COS-7 cells, calcium phosphate transfection
T1 sequence (Q8TDV5 1-335): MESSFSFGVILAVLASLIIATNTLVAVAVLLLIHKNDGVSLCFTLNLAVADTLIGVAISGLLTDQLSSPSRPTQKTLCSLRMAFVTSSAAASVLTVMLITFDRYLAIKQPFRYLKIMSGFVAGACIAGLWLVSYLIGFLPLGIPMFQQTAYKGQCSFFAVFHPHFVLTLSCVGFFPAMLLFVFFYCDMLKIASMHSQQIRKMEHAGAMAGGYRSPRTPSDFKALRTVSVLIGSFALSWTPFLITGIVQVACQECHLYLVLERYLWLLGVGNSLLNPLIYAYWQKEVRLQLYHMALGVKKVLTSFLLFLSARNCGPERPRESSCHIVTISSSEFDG
Nature of the assay: cAMP assay in GPR119 transfected COS-7 cells. The note with it: COS-7 cells expressing human GPR119, agonists 30 min; read-out: EC50, production of cAMP. Format: cell-based. The protocol: COS-7 cells were cultured in Dulbecco's modified Eagle medium (DMEM) 1885 supplemented with 10% FBS, […] L-glutamine and 180 IU/ml penicillin+[…] streptomycin (Pen Strep) (Life Technologies, CA, USA) at 37° C. and 10% CO2. The COS-7 cells were transiently transfected with GPR119 or pcDNA by the calcium phosphate transfection method for 5 hours in 37° C., 10% CO2 as described by Kissow H, Hartmann B, Hoist J J, Viby N E, Hansen L S, Rosenkilde M M, Hare K J, Poulsen S S. Regul Pept. 2012. Vol: 179(1-3), pp 91-100; the disclosure of which is incorporated herein in its entirety by way of reference.
COS-7 cells were transfected with about 40 μg GPR119 DNA or pcDNA3 per […] flask. One day after transfection, the cells were seeded out (about 35,000 cell/well) in a 96 well white plate (Perkin Elmer, Massachusetts, USA). The cells were washed twice the following day and incubated for 30 min, at 37° C. with HBS and 1 mM IBMX (Sigma Aldrich, USA). Agonists were added for 30 min in the assay medium. The Hithunter® cAMP XS+ (DiscoveRx, Fremont, USA) was carried out by following the manufacturer's instructions.
Accordingly, the work outlined in this example evaluates whether activation of GPR119 by oleoyl-LPI in enteroendocrine L cell affect the proglucagon gene expression by monitoring the CREB activity. […]
In general terms: Changes in cAMP serve as a functional read-out for many G protein-coupled receptors.

As to “oleoyl-lysophosphatidylinositol [oleoyl-LPI]”, the GLP-1 secretion in assay [1] (10 μM) was determined as 126±8%; in assay [1] (20 μM) it was 223±23%; in assay [1] (50 μM) it was 333±45%; in the assay with Glutag cells (Glutag cells, normalised as percentage of cells treated with vehicle (control)), 126±5%. For the same substance, in the assay with Glutag cells (siGPR55 transfected Glutag cells, oleoyl-LPI 20 μM), the “effect of down-regulation of GPR55 on GLP-1 secretion” value is reported as “no effect on GLP-1 secretion”. The “GLP-1 secretion in siGPR119-transfected cells” value in the assay on Glutag cells (siGPR119 transfected Glutag cells, oleoyl-LPI 20 μM) is “significantly reduced the GLP-1 secretion to the basal level”. Moreover, the EC50 on human GPR119 worked out at 239 nM.
